Patent US8198273B2, “Compounds and methods for kinase modulation, and indications therefor” (Plexxikon Inc., priority 2009, dated 2012)

What was measured:
CYP3A4(BFC) = CYP3A4(BFC) (Homo sapiens, UniProt P08684); assay: CYP3A4(BFC) inhibition (fluorescent substrate); format: in vitro ADME; conditions: read-out: Cyp IC50 3A4(BFC)
How it was run: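 Inhibition was followed as loss of fluorescent metabolite from a known substrate, with compound in co-factor mix as a 10-point 1:1 serial dilution (100 mM DMSO stock).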

CYP1A2 = target: T1, CYP1A2 (Homo sapiens, UniProt P05177); assay: CYP1A2 inhibition (fluorescent substrate); format: in vitro ADME; conditions: CYP1A2, CEC substrate; read-out: Cyp IC50 1A2
T1 sequence (P05177 1-516): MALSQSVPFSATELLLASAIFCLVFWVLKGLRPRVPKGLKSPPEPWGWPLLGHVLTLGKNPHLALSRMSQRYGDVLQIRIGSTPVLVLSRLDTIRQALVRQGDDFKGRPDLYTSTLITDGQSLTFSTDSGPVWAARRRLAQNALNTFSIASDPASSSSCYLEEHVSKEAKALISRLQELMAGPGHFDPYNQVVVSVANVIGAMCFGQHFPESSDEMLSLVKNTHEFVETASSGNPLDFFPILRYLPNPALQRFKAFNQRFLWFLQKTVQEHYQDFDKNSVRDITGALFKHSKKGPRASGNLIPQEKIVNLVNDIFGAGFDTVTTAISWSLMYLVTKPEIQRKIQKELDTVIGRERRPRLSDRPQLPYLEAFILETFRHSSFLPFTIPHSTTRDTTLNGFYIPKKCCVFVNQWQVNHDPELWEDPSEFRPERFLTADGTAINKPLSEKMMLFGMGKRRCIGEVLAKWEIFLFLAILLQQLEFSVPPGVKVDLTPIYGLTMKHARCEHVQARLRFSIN
Procedure: (§1) CYP (Cytochrome P450) enzymes are the major drug metabolizing enzymes present in the liver. The inhibition of CYP enzyme activity (IC50) for each of CYP1A2, CYP2C19, CYP2C9, CYP2D6, CYP3A4(BFC) and CYP3A4(BQ) is determined for compounds, where inhibition of metabolism of a known substrate leads to a decrease in the fluorescence of the metabolized product. The fluorescence of the product is monitored as a function of compound concentration.
(§2) Compounds are dissolved in dimethyl sulfoxide to a concentration of 100 mM. These are diluted 1 μL into 82 μL of acetonitrile. […] These are then serially diluted 1:1 (160 μL to 160 μL co-factor mix) for a total of 10 points. A 10 μL aliquot of this final mixture is dispensed into 384 well assay plates and incubated for 10 minutes at 37° C. […] Assay plates are incubated at 37° C. […] The signal versus compound concentration is used to determine the IC50. The enzymes and substrates for this assay are obtained from BD Biosciences.

CYP2C19 = CYP2C19 (Homo sapiens, UniProt P33261); assay: CYP2C19 inhibition (fluorescent substrate); format: in vitro ADME; conditions: CYP2C19, CEC substrate; read-out: Cyp IC50 2C19
Procedure: as §1, §2

B-Raf = B-Raf (Homo sapiens, UniProt P15056); assay: B-Raf biochemical kinase inhibition (AlphaScreen, biotin-MEK1 substrate); conditions: 100 μM ATP
How it was run: (§3)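 IC50 derived from AlphaScreen signal plotted against compound concentration. Final ATP 100 μM; 3 h incubation at room temperature. Eight-point 3-fold dilution series prepared from a 0.1 mM DMSO stock.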

[1] = Relative solubility by turbidity in aqueous buffers of varying pH; format: physicochemical; conditions: for turbidity threshold (L, M, H) 7.4: HEPES pH 7.4; for turbidity threshold (L, M, H) 4.5: SIF pH 4.5; for turbidity threshold (L, M, H) 6.8: SIF pH 6.8; for turbidity threshold (L, M, H) 1.4: buffer pH 1.4 (SGF)
How it was run: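 Turbidity endpoint: concentration where optical density at 490, 535 and 650 nm exceeds 0.01, three-wavelength average used. Buffers at pH 1.5, 4.5, 6.8 and 7.4; DMSO serial dilutions of 25 mM stock spiked 1 μL into 99 μL buffer. Low <31.3, moderate 31.3–250, high >250 μM.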

B-Raf V600E = B-Raf V600E (Homo sapiens, UniProt P15056, V600E); assay: B-Raf V600E biochemical kinase inhibition (AlphaScreen, biotin-MEK1 substrate); conditions: 100 μM ATP
How it was run: as §3

Sequence of B-Raf V600E (P15056 whole entry V600E): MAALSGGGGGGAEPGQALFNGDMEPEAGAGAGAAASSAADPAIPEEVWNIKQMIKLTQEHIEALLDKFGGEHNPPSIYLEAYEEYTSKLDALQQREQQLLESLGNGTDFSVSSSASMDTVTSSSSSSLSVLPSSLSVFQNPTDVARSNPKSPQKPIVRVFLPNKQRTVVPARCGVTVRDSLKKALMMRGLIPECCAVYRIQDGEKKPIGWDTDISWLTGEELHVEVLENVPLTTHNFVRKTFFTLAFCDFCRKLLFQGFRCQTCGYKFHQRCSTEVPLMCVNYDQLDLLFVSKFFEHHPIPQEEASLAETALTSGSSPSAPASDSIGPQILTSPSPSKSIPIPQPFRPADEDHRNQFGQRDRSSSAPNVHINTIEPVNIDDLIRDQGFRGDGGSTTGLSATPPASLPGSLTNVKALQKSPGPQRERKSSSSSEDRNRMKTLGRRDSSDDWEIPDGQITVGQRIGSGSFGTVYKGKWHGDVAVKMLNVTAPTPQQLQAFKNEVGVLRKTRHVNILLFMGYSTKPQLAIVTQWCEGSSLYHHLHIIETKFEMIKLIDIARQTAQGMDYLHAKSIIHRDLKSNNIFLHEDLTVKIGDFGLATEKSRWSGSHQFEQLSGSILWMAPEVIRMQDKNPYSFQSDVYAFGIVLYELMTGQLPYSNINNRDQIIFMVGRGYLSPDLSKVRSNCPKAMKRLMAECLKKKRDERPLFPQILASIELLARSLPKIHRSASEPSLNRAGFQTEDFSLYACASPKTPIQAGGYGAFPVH
Sequence of CYP2C19 (P33261 whole entry): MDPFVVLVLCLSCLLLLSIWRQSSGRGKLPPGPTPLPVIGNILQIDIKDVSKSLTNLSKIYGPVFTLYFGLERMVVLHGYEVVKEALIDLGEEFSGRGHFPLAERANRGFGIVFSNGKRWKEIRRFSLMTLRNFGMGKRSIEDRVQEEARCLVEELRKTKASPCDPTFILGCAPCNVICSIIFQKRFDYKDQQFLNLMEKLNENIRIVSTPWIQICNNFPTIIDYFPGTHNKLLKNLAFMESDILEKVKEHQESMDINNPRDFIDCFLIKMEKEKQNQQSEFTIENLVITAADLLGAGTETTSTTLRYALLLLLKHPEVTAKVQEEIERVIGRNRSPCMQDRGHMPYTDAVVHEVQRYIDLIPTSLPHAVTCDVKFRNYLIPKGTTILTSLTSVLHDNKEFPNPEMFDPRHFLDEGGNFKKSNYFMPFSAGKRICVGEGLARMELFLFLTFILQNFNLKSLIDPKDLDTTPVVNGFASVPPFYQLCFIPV
Sequence of CYP3A4(BFC) (P08684 whole entry): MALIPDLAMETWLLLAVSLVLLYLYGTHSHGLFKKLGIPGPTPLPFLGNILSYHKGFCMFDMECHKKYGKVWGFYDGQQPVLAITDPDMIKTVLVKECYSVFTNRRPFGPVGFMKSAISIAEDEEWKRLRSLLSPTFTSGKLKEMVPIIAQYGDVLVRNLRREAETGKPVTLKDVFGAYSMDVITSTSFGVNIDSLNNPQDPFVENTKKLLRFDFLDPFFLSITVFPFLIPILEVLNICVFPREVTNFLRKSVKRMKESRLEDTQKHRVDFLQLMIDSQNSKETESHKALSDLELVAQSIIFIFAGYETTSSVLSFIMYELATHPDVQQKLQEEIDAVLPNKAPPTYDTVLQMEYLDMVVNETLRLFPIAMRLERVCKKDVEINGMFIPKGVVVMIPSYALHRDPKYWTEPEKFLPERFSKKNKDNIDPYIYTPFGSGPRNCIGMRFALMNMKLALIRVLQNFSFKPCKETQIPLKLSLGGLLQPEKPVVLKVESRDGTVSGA
Sequence of B-Raf (P15056 whole entry): as the sequence (P15056 whole entry V600E) above, with E600V counted along it

Row | Structure (SMILES) | IC50 (CYP3A4(BFC)) [µM] | IC50 (CYP1A2) [µM] | IC50 (CYP2C19) [µM] | IC50 (B-Raf) [µM] | IC50 (B-Raf V600E) [µM] | turbidity threshold (L, M, H) 7.4 [1] | turbidity threshold (L, M, H) 4.5 [1] | turbidity threshold (L, M, H) 6.8 [1] | turbidity threshold (L, M, H) 1.4 [1]
1 | N#Cc1ccnc2[nH]cc(C(=O)c3c(F)ccc(NS(=O)(=O)c4cccnc4)c3F)c12 [P-2077, Pyridine-3-sulfonic acid [3-(4-cyano-1H-pyrrolo[2,3-b]pyridine-3-carbonyl)-2,4-difluoro-phenyl]-amide] | 5 to 10 | > 10 | > 10 | < 0.01 | < 0.01 |  |  |  | 
2 | CCCS(=O)(=O)Nc1ccc(F)c(C(=O)c2c[nH]c3ncc(-c4ccc(Cl)nc4)cc23)c1F [P-2154, Propane-1-sulfonic acid {3-[5-(6-chloro-pyridin-3-yl)-1H-pyrrolo[2,3-b]pyridine-3-carbonyl]-2,4-difluoro-phenyl}-amide] | > 10 | > 10 | 5 to 10 | < 0.01 | < 0.1 |  |  |  | 
3 | CCCS(=O)(=O)Nc1ccc(F)c(C(=O)c2c[nH]c3ncc(-c4ccc(S(=O)(=O)NC)cc4)cc23)c1F [P-2167, 4-{3-[2,6-Difluoro-3-(propane-1-sulfonylamino)-benzoyl]-1H-pyrrolo[2,3-b]pyridin-5-yl}-N-methyl-benzenesulfonamide] | > 10 | > 10 | 5 to 10 | < 0.01 | < 0.01 |  |  |  | 
4 | CCCS(=O)(=O)Nc1ccc(F)c(C(=O)c2c[nH]c3ncc(-c4cnc(OC)nc4OC)cc23)c1F [P-2199, Propane-1-sulfonic acid {3-[5-(2,4-dimethoxy-pyrimidin-5-yl)-1H-pyrrolo[2,3-b]pyridine-3-carbonyl]-2,4-difluoro-phenyl}-amide] | > 10 | > 10 | > 10 | < 0.1 | < 0.01 |  |  |  | 
5 | CCCc1ccc(-c2cnc3[nH]cc(C(=O)c4c(F)ccc(NS(=O)(=O)CCC)c4F)c3c2)cn1 [P-2224, Propane-1-sulfonic acid {2,4-difluoro-3-[5-(6-propyl-pyridin-3-yl)-1H-pyrrolo[2,3-b]pyridine-3-carbonyl]-phenyl}-amide] | > 10 | > 10 | 5 to 10 | < 0.01 | < 0.01 |  |  |  | 
6 | CCCS(=O)(=O)Nc1ccc(F)c(C(=O)c2c[nH]c3ncc(-c4cccc(S(C)(=O)=O)c4)cc23)c1F [P-2228, Propane-1-sulfonic acid {2,4-difluoro-3-[5-(3-methanesulfonyl-phenyl)-1H-pyrrolo[2,3-b]pyridine-3-carbonyl]-phenyl}-amide] | > 10 | > 10 | > 10 | < 0.01 | < 0.01 |  |  |  | 

Continued, in another order:

Row | IC50 (CYP3A4(BFC)) [µM] | IC50 (CYP1A2) [µM] | IC50 (CYP2C19) [µM] | IC50 (B-Raf) [µM] | IC50 (B-Raf V600E) [µM] | Structure (SMILES) | turbidity threshold (L, M, H) 7.4 [1] | turbidity threshold (L, M, H) 4.5 [1] | turbidity threshold (L, M, H) 6.8 [1] | turbidity threshold (L, M, H) 1.4 [1]
7 | > 10 | > 10 | 5 to 10 | < 0.01 | < 0.01 | O=C(c1c(F)ccc(NS(=O)(=O)c2cc(F)ccc2F)c1F)c1c[nH]c2ncc(Cl)cc12 [P-2002, N-[3-(5-Chloro-1H-pyrrolo[2,3-b]pyridine-3-carbonyl)-2,4-difluoro-phenyl]-2,5-difluoro-benzenesulfonamide] | M (moderate solubility if the threshold concentration is 31.3 μM to 250 μM) | L (low solubility if the threshold concentration is <31.3 04) | M (moderate solubility if the threshold concentration is 31.3 μM to 250 μM) | L (low solubility if the threshold concentration is <31.3 04)
8 | > 10 | > 10 | > 10 | < 0.1 | < 0.1 | O=C(c1c(F)ccc(NS(=O)(=O)c2c(F)cccc2F)c1F)c1c[nH]c2ncc(Cl)cc12 [P-2003, N-[3-(5-Chloro-1H-pyrrolo[2,3-b]pyridine-3-carbonyl)-2,4-difluoro-phenyl]-2,6-difluoro-benzenesulfonamide] | H (high solubility if the threshold concentration is >250 μM) | M (moderate solubility if the threshold concentration is 31.3 μM to 250 μM) | M (moderate solubility if the threshold concentration is 31.3 μM to 250 μM) | M (moderate solubility if the threshold concentration is 31.3 μM to 250 μM)
9 | > 10 | > 10 | > 10 | < 0.1 | < 0.01 | COc1cnc2[nH]cc(C(=O)c3c(F)ccc(NS(=O)(=O)c4ccccc4F)c3F)c2c1 [P-2009, N-[2,4-Difluoro-3-(5-methoxy-1H-pyrrolo[2,3-b]pyridine-3-carbonyl)-phenyl]-2-fluoro-benzenesulfonamide] | M (moderate solubility if the threshold concentration is 31.3 μM to 250 μM) | L (low solubility if the threshold concentration is <31.3 04) | L (low solubility if the threshold concentration is <31.3 04) | L (low solubility if the threshold concentration is <31.3 04)
10 | > 10 | > 10 | > 10 | < 0.1 | < 0.01 | COc1cnc2[nH]cc(C(=O)c3c(F)ccc(NS(=O)(=O)c4cc(F)ccc4F)c3F)c2c1 [P-2010, N-[2,4-Difluoro-3-(5-methoxy-1H-pyrrolo[2,3-b]pyridine-3-carbonyl)-phenyl]-2,5-difluoro-benzenesulfonamide] | M (moderate solubility if the threshold concentration is 31.3 μM to 250 μM) | L (low solubility if the threshold concentration is <31.3 04) | M (moderate solubility if the threshold concentration is 31.3 μM to 250 μM) | L (low solubility if the threshold concentration is <31.3 04)
11 | 5 to 10 | > 10 | > 10 | < 0.1 | < 0.1 | COc1ccnc2[nH]cc(C(=O)c3c(F)ccc(NS(=O)(=O)c4cccnc4)c3F)c12 [P-2073, Pyridine-3-sulfonic acid [2,4-difluoro-3-(4-methoxy-1H-pyrrolo[2,3-b]pyridine-3-carbonyl)-phenyl]-amide] |  |  |  | 
12 | > 10 | > 10 | > 10 | < 0.01 | < 0.01 | CCCS(=O)(=O)Nc1ccc(F)c(C(=O)c2c[nH]c3ncc(-c4ccc(SC)nc4)cc23)c1F [P-2187, Propane-1-sulfonic acid {2,4-difluoro-3-[5-(6-methylsulfanyl-pyridin-3-yl)-1H-pyrrolo[2,3-b]pyridine-3-carbonyl]-phenyl}-amide] |  |  |  | 
13 | > 10 | > 10 | 5 to 10 | < 0.01 | < 0.01 | CCCS(=O)(=O)Nc1ccc(F)c(C(=O)c2c[nH]c3ncc(-c4ccc(N)nc4)cc23)c1F [P-2214, Propane-1-sulfonic acid {3-[5-(6-amino-pyridin-3-yl)-1H-pyrrolo[2,3-b]pyridine-3-carbonyl]-2,4-difluoro-phenyl}-amide] |  |  |  | 
